Test results as given in the supplement of paper PMC4862054.

Key:
Conditions in all cases: incubation time: 72 h
[1] = tested on: MDA-MB-436; experiment: normalised viability (% of control), CellTiter-Blue; higher = more viable cells (100 = DMSO, 0 = benzethonium chloride kill control)
Protocol: (§1)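 DSRT, CellTiter-Blue viability, 72 h incubation. Signal is normalised to DMSO and benzethonium chloride controls. Value is the normalised response at dose 1.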

[2] = tested on: HCC1599; experiment: as above
Protocol: as §1

[3] = tested on: CAL-85-1; experiment: as above
Protocol: as §1

[4] = tested on: HCC1937; experiment: as above
Protocol: as §1

[5] = tested on: HDQ-P1; experiment: as above
Protocol: as §1

[6] = tested on: MDA-MB-468; experiment: as above
Protocol: as §1

[7] = tested on: CAL-120; experiment: as above
Protocol: as §1

[8] = tested on: HCC1143; experiment: as above
Protocol: as §1

[9] = tested on: MDA-MB-453; experiment: as above
Protocol: as §1

[10] = tested on: CAL-148; experiment: as above
Protocol: as §1

[11] = tested on: Hs578T; experiment: as above
Protocol: as §1

[12] = tested on: SK-BR-3; experiment: as above
Protocol: as §1

[13] = tested on: CAL-51; experiment: as above
Protocol: as §1

[14] = tested on: BT-549; experiment: as above
Protocol: as §1

[15] = tested on: BT-474; experiment: as above
Protocol: as §1

[16] = tested on: DU-4475; experiment: as above
Protocol: as §1

[17] = tested on: MFM-223; experiment: as above
Protocol: as §1

[18] = tested on: MDA-MB-231; experiment: as above
Protocol: as §1

[19] = tested on: MDA-MB-436; experiment: normalised response (% of control), CellTiter-Glo; higher = more viable cells (100 = DMSO, 0 = benzethonium chloride kill control)
In short: (§2)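 CellTox Green fluorescence (485/520 nm) and, after 10 min at room temperature, CellTiter-Glo luminescence were read from breast cancer cell lines incubated 72 h in 384-well plates. Cells were seeded as 20 µl suspension onto compound at 5 concentrations in 10-fold steps over a 10,000-fold range chosen per compound. Each plate was normalised to 0.1 % DMSO (100) and a positive kill control (0). Values are normalised signals, one per concentration.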

[20] = tested on: HCC1599; experiment: as above
In short: as §2

[21] = tested on: CAL-85-1; experiment: as above
In short: as §2

[22] = tested on: HCC1937; experiment: as above
In short: as §2

[23] = tested on: HDQ-P1; experiment: as above
In short: as §2

[24] = tested on: MDA-MB-468; experiment: as above
In short: as §2

[25] = tested on: CAL-120; experiment: as above
In short: as §2

[26] = tested on: HCC1143; experiment: as above
In short: as §2

[27] = tested on: MDA-MB-453; experiment: as above
In short: as §2

[28] = tested on: CAL-148; experiment: as above
In short: as §2

[29] = tested on: Hs578T; experiment: as above
In short: as §2

[30] = tested on: SK-BR-3; experiment: as above
In short: as §2

[31] = tested on: CAL-51; experiment: as above
In short: as §2

[32] = tested on: BT-549; experiment: as above
In short: as §2

[33] = tested on: MCF-10A; experiment: as above
In short: as §2

[34] = tested on: BT-474; experiment: as above
In short: as §2

[35] = tested on: DU-4475; experiment: as above
In short: as §2

[36] = tested on: MFM-223; experiment: as above
In short: as §2

[37] = tested on: MDA-MB-231; experiment: as above
In short: as §2

[38] = tested on: CAL-85-1; experiment: normalised viability (% of control), CellTiter-Blue; higher = more viable cells (about 100 = DMSO control)
Protocol: (§3)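 DSRT, CellTiter-Blue viability, 72 h incubation. Signal is normalised to DMSO and benzethonium chloride controls. Value is the normalised response at dose 9.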

[39] = tested on: HDQ-P1; experiment: as above
Protocol: as §3

[40] = tested on: MDA-MB-453; experiment: as above
Protocol: as §3

[41] = tested on: CAL-148; experiment: as above
Protocol: as §3

[42] = tested on: CAL-51; experiment: as above
Protocol: as §3

[43] = tested on: DU-4475; experiment: as above
Protocol: as §3

SMILES: CN1CCC(COc2cnc(-c3cccc(Cn4nc(-c5cccc(C#N)c5)ccc4=O)c3)nc2)CC1 (1 nM)
- normalised viability [1]: 98.7%
- normalised viability [2]: 110%
- normalised viability [3]: 99.6%
- normalised viability [4]: 86.7%
- normalised viability [5]: 77.4%
- normalised viability [6]: 92.5%
- normalised viability [7]: 102%
- normalised viability [8]: 110%
- normalised viability [9]: 104%
- normalised viability [10]: 89.6%
- normalised viability [11]: 98.4%
- normalised viability [12]: 96.4%
- normalised viability [13]: 90.5%
- normalised viability [14]: 93.2%
- normalised viability [15]: 83.7%
- normalised viability [16]: 100%
- normalised viability [17]: 101%
- normalised viability [18]: 77.3%
- normalised response [19]: 91.4%
- normalised response [20]: 112%
- normalised response [21]: 90.4%
- normalised response [22]: 103%
- normalised response [23]: 95.3%
- normalised response [24]: 92.3%
- normalised response [25]: 99.1%
- normalised response [26]: 102%
- normalised response [27]: 91.3%
- normalised response [28]: 97.8%
- normalised response [29]: 96.7%
- normalised response [30]: 71%
- normalised response [31]: 127%
- normalised response [32]: 93.5%
- normalised response [33]: 93.9%
- normalised response [34]: 101%
- normalised response [35]: 100%
- normalised response [36]: 93.6%
- normalised response [37]: 95.1%

SMILES: CN1CCC(COc2cnc(-c3cccc(Cn4nc(-c5cccc(C#N)c5)ccc4=O)c3)nc2)CC1 (10000 nM)
- normalised viability [38]: 6.29%
- normalised viability [39]: 4.94%
- normalised viability [40]: 3.23%
- normalised viability [41]: 25.8%
- normalised viability [42]: 6.25%
- normalised viability [43]: 2.2%

SMILES: CN(C)C/C=C/C(=O)Nc1cc2c(Nc3ccc(F)c(Cl)c3)ncnc2cc1O[C@H]1CCOC1 [Afatinib] (1 nM)
- normalised viability [1]: 88.4%
- normalised viability [2]: 84.5%
- normalised viability [3]: 82%
- normalised viability [4]: 85.4%
- normalised viability [5]: 74.3%
- normalised viability [6]: 107%
- normalised viability [7]: 69.7%
- normalised viability [8]: 83.8%
- normalised viability [9]: 101%
- normalised viability [10]: 106%
- normalised viability [11]: 102%
- normalised viability [12]: 89.2%
- normalised viability [13]: 109%
- normalised viability [14]: 111%
- normalised viability [15]: 85.9%
- normalised viability [16]: 96.4%
- normalised viability [17]: 93.2%
- normalised viability [18]: 92.4%
- normalised response [19]: 105%
- normalised response [20]: 104%
- normalised response [21]: 108%
- normalised response [22]: 97.2%
- normalised response [23]: 98.4%
- normalised response [24]: 109%
- normalised response [25]: 94.4%
- normalised response [26]: 106%
- normalised response [27]: 112%
- normalised response [28]: 90.3%
- normalised response [29]: 96.5%
- normalised response [30]: 98.9%
- normalised response [31]: 116%
- normalised response [32]: 96.9%
- normalised response [33]: 92.7%
- normalised response [34]: 97.5%
- normalised response [35]: 109%
- normalised response [36]: 97.8%
- normalised response [37]: 97.7%

SMILES: CN(C)C/C=C/C(=O)Nc1cc2c(Nc3ccc(F)c(Cl)c3)ncnc2cc1O[C@H]1CCOC1 [Afatinib] (10000 nM)
- normalised viability [38]: 13.6%
- normalised viability [39]: 4.6%
- normalised viability [40]: 14.4%
- normalised viability [41]: 40.7%
- normalised viability [42]: 50.6%
- normalised viability [43]: 67.8%

SMILES: CN1CC[C@H](c2c(O)cc(O)c3c(=O)cc(-c4ccccc4Cl)oc23)[C@H](O)C1 [Alvocidib] (1 nM)
- normalised viability [1]: 94.3%
- normalised viability [2]: 99.6%
- normalised viability [3]: 83.5%
- normalised viability [4]: 96.4%
- normalised viability [5]: 79.7%
- normalised viability [6]: 113%
- normalised viability [7]: 75%
- normalised viability [8]: 78.5%
- normalised viability [9]: 95.8%
- normalised viability [10]: 104%
- normalised viability [11]: 73.7%
- normalised viability [12]: 97.4%
- normalised viability [13]: 102%
- normalised viability [14]: 104%
- normalised viability [15]: 92.3%
- normalised viability [16]: 101%
- normalised viability [17]: 88.3%
- normalised viability [18]: 98.1%
- normalised response [19]: 97.9%
- normalised response [20]: 94.2%
- normalised response [21]: 110%
- normalised response [22]: 103%
- normalised response [23]: 94.9%
- normalised response [24]: 106%
- normalised response [25]: 102%
- normalised response [26]: 96.5%
- normalised response [27]: 115%
- normalised response [28]: 104%
- normalised response [29]: 98.1%
- normalised response [30]: 112%
- normalised response [31]: 80.2%
- normalised response [32]: 106%
- normalised response [33]: 95.2%
- normalised response [34]: 92.2%
- normalised response [35]: 104%
- normalised response [36]: 98.2%
- normalised response [37]: 103%

SMILES: COc1cc(Nc2ncc3c(n2)-c2ccc(Cl)cc2C(c2c(F)cccc2OC)=NC3)ccc1C(=O)O [MLN8237] (1 nM)
- normalised viability [1]: 119%
- normalised viability [2]: 114%
- normalised viability [3]: 95.7%
- normalised viability [4]: 101%
- normalised viability [5]: 88.2%
- normalised viability [6]: 105%
- normalised viability [7]: 92.1%
- normalised viability [8]: 96.3%
- normalised viability [9]: 93.8%
- normalised viability [10]: 102%
- normalised viability [11]: 99.4%
- normalised viability [12]: 103%
- normalised viability [13]: 99.7%
- normalised viability [14]: 115%
- normalised viability [15]: 109%
- normalised viability [16]: 101%
- normalised viability [17]: 88.5%
- normalised viability [18]: 109%

SMILES: COc1cc(Nc2ncc3c(n2)-c2ccc(Cl)cc2C(c2c(F)cccc2OC)=NC3)ccc1C(=O)O [MLN8237] (10000 nM)
- normalised viability [38]: 56.3%
- normalised viability [39]: 40.9%
- normalised viability [40]: 44.8%
- normalised viability [41]: 26.2%
- normalised viability [42]: 18.8%
- normalised viability [43]: 21.9%

SMILES: CO[C@H]1C[C@@H]2CC[C@@H](C)[C@@](O)(O2)C(=O)C(=O)N2CCCC[C@H]2C(=O)O[C@H]([C@H](C)C[C@@H]2CC[C@@H](OC(=O)C(C)(CO)CO)[C@H](OC)C2)CC(=O)[C@H](C)/C=C(\C)[C@@H](O)[C@@H](OC)C(=O)[C@H](C)C[C@H](C)/C=C/C=C/C=C/1C [Temsirolimus] (0.1 nM)
- normalised viability [1]: 92.4%
- normalised viability [2]: 99.8%
- normalised viability [3]: 79.7%
- normalised viability [4]: 55.3%
- normalised viability [5]: 105%
- normalised viability [6]: 93.5%
- normalised viability [7]: 86.7%
- normalised viability [8]: 94.1%
- normalised viability [9]: 88.1%
- normalised viability [10]: 96.1%
- normalised viability [11]: 86.6%
- normalised viability [12]: 92.6%
- normalised viability [13]: 98.3%
- normalised viability [14]: 92.8%
- normalised viability [15]: 95%
- normalised viability [16]: 99.3%
- normalised viability [17]: 77.8%
- normalised viability [18]: 83.6%
- normalised response [19]: 103%
- normalised response [20]: 89.3%
- normalised response [21]: 100%
- normalised response [22]: 91.1%
- normalised response [23]: 101%
- normalised response [24]: 88.6%
- normalised response [25]: 97.5%
- normalised response [26]: 102%
- normalised response [27]: 104%
- normalised response [28]: 99.7%
- normalised response [29]: 88.2%
- normalised response [31]: 106%
- normalised response [32]: 86.6%
- normalised response [33]: 104%
- normalised response [34]: 104%
- normalised response [35]: 104%
- normalised response [36]: 103%
- normalised response [37]: 101%

SMILES: CO[C@H]1C[C@@H]2CC[C@@H](C)[C@@](O)(O2)C(=O)C(=O)N2CCCC[C@H]2C(=O)O[C@H]([C@H](C)C[C@@H]2CC[C@@H](OC(=O)C(C)(CO)CO)[C@H](OC)C2)CC(=O)[C@H](C)/C=C(\C)[C@@H](O)[C@@H](OC)C(=O)[C@H](C)C[C@H](C)/C=C/C=C/C=C/1C [Temsirolimus] (1000 nM)
- normalised viability [38]: 57.7%
- normalised viability [39]: 80.6%
- normalised viability [40]: 22.8%
- normalised viability [41]: 36.1%
- normalised viability [42]: 32.6%
- normalised viability [43]: 49.6%
